In patent publication US9522160B2, “Ophthalmic formulations” (Inotek Pharmaceuticals Corporation, priority 2013, dated 2016):
One block for each molecule: values may come before it.

Key:
retinal ganglion cells = settings: formulation of Compound A; cited from earlier work
normotensive monkeys = settings: Compound A in combination with latanoprost; cited from earlier work
[1] = Stability study of a 3% suspension of Compound A (Formulation 3) spiked with latanoprost; latanoprost and latanoprost acid by HPLC; type: physicochemical
Protocol: Latanoprost is added, usually aseptically, to the Formulation after the curing step or after all other formulation steps as described above. For example latanoprost can be spiked into Formulation 3 with Compound A at 3.0% (Example 5 above) to prepare a unit dosage of a combination of Compound A with a concentration of latanoprost of about 50 ug/ml. A stability study has been done to study the stability of a combination of a suspension of Compound A as Formulation 3 and latanoprost. The stability study is described below.
A 10 mL sample of a 3% suspension of Compound A spiked with latanoprost at 50 μg/mL was used for the stability study. Ethanol was used to disperse the latanoprost into the suspension of Compound A. The final solution ethanol target was 0.5% so for 10 mLs of the suspension, the latanoprost was dissolved in 50 μL of ethanol.
For 10 mls of the suspension, 0.5 mg of latanoprost was needed for the spike. A 50 μL sample of a commercial solution containing 10 mg/mL of latanoprost in methyl acetate was taken and the solvent removed under vacuum. The residue was taken up in 50 μL of ethanol.
A 9.950 mL sample of the suspension, taken with a 5 mL autopipette (2×4.975 mL) was spiked with the ethanol solution with mixing.
After taking a 500 μL T0 sample, the bulk solution was divided into 3 containers that were set down at 2-8° C., 25° C./60RH and 40° C./75RH.
The solution in this case would be 0.5 mg in 8.5 mL volume or […] of latanoprost in the suspension. Therefore for analysis, the theoretical latanoprost in solution after a 50% dilution with acetonitrile was 29.4 μg/mL.
A calibration curve of latanoprost acid was also prepared using the commercial solution that contained 10 mg/mL in methyl acetate.
In contrast to the latanoprost standards, these solutions were prepared in 100% acetonitrile.
The solutions injected were 5, 2.5 and 1.25 μg/mL solutions.
The stability samples were prepared by vortex mixing and sonication of the suspension followed by a 50% dilution with acetonitrile. After centrifugation the supernatant was injected on the HPLC.
The assay results are shown below in Table 2 where the calculated concentration is shown in μg/mL. (The theory concentration is 29.4 μg/ml),
4 week samples. For the 4 week 25° C./60 and 40° C./75 samples the calculated latanoprost acid values were 0.4 and 0.3 μg/mL respectively. The impurities increased slightly at 3 months. For the 3 month 25° C./60 and 40° C./75 samples the calculated latanoprost acid values were 0.63 and 3.92 μg/mL respectively.
Except for the 40° C./75 sample at 3 months the values for all other samples were below the calibration curve concentrations and therefore below the detection level of the method.

SMILES: O=[N+]([O-])OC[C@H]1O[C@@H](n2cnc3c(NC4CCCC4)ncnc32)[C@H](O)[C@@H]1O [Compound A, ((2R,3S,4R,5R)-5-(6-(cyclopentylamino)-9H-purin-9-yl)-3,4-dihydroxytetrahydrofuran-2-yl)methyl nitrate]
neuroprotective effect on retinal ganglion cells (retinal ganglion cells): neuroprotective effect | IOP reduction (normotensive monkeys): significant IOP reduction

Latanoprost Assay Results ([1]; 2-8° C., 2 Weeks): 32.29 µg/mL | Latanoprost Assay Results (% T0) ([1]; 2-8° C., 2 Weeks): 109 % T0 | Latanoprost Assay Results (% T0) ([1]; 2-8° C., 3 Months): 121.1 % T0 | Latanoprost Assay Results ([1]; 2-8° C., 3 Months, sample contained some latanoprost impurities): 35.63 µg/mL | Latanoprost Assay Results ([1]; 2-8° C., 4 Weeks): 33.97 µg/mL | Latanoprost Assay Results (% T0) ([1]; 2-8° C., 4 Weeks): 115 % T0 | Latanoprost Assay Results ([1]; 25° C./60, 2 Weeks): 32.37 µg/mL | Latanoprost Assay Results (% T0) ([1]; 25° C./60, 2 Weeks): 110 % T0 | Latanoprost Assay Results (% T0) ([1]; 25° C./60, 3 Months): 103.5 % T0 | Latanoprost Assay Results ([1]; 25° C./60, 3 Months, sample contained some latanoprost impurities): 30.42 µg/mL | Latanoprost Assay Results (% T0) ([1]; 25° C./60, 4 Weeks): 112 % T0 | Latanoprost Assay Results ([1]; 25° C./60, 4 Weeks, sample contained some latanoprost impurities): 32.90 µg/mL | Latanoprost Assay Results ([1]; 40° C./75, 2 Weeks): 31.35 µg/mL | Latanoprost Assay Results (% T0) ([1]; 40° C./75, 2 Weeks): 106 % T0 | Latanoprost Assay Results (% T0) ([1]; 40° C./75, 3 Months): 89.0 % T0 | Latanoprost Assay Results ([1]; 40° C./75, 3 Months, sample contained some latanoprost impurities): 26.18 µg/mL | Latanoprost Assay Results (% T0) ([1]; 40° C./75, 4 Weeks): 101 % T0 | Latanoprost Assay Results ([1]; 40° C./75, 4 Weeks, sample contained some latanoprost impurities): 29.90 µg/mL | Latanoprost Assay Results ([1]; T0, 3% Compound A suspension spiked with latanoprost, 50% dilution with acetonitrile, theory concentration 29.4 μg/ml): 29.49 µg/mL
SMILES: CC(C)OC(=O)CCC/C=C\C[C@@H]1[C@@H](CC[C@@H](O)CCc2ccccc2)[C@H](O)C[C@@H]1O [Latanoprost, latanoprost]

latanoprost acid present in stability sample ([1]; 2-8° C., 4 week sample): No latanoprost acid was present | latanoprost acid present in stability sample ([1]; 2 week samples): No latanoprost acid was present | latanoprost acid present in stability sample ([1]; T0 sample): No latanoprost acid was present
SMILES: O=C(O)CCC/C=C\C[C@@H]1[C@@H](CC[C@@H](O)CCc2ccccc2)[C@H](O)C[C@@H]1O [latanoprost acid]
